Measurements from US20240190874A1, “SMALL MOLECULE DEGRADERS OF ANDROGEN RECEPTOR” (THE REGENTS OF THE UNIVERSITY OF MICHIGAN, priority 2021, published 2024).
pIC50: −log10 of the molar value. Read-outs that look alike come from different tables or passages of the source.

Assays:
Assay type in all cases: cell-based
LNCaP cells = assay: Cellular potency (IC50) in LNCaP cells
Procedure: (§1) Biological Assays. LNCaP and VCaP cells used were purchased from American Type Culture Collection (ATCC). LNCaP were grown in RPMI 1640 (Invitrogen) and VCaP cells were grown in DMEM with Glutamax (Invitrogen). All of the cells were supplemented with 10% fetal bovine serum (Invitrogen) at 37° C. in a humidified 5% CO2 incubator.

VCaP cells = assay: Cellular potency (IC50) in VCaP cells
Procedure: as §1

AR = biological target: T1, AR (Homo sapiens, UniProt P10275); assay: Degradation of AR in VCaP cells; details: VCaP cells; for Dmax: VCaP
T1 construct: Degradation of AR; Cellular potency; host or cells: VCaP cells
T1 sequence (P10275 1-920): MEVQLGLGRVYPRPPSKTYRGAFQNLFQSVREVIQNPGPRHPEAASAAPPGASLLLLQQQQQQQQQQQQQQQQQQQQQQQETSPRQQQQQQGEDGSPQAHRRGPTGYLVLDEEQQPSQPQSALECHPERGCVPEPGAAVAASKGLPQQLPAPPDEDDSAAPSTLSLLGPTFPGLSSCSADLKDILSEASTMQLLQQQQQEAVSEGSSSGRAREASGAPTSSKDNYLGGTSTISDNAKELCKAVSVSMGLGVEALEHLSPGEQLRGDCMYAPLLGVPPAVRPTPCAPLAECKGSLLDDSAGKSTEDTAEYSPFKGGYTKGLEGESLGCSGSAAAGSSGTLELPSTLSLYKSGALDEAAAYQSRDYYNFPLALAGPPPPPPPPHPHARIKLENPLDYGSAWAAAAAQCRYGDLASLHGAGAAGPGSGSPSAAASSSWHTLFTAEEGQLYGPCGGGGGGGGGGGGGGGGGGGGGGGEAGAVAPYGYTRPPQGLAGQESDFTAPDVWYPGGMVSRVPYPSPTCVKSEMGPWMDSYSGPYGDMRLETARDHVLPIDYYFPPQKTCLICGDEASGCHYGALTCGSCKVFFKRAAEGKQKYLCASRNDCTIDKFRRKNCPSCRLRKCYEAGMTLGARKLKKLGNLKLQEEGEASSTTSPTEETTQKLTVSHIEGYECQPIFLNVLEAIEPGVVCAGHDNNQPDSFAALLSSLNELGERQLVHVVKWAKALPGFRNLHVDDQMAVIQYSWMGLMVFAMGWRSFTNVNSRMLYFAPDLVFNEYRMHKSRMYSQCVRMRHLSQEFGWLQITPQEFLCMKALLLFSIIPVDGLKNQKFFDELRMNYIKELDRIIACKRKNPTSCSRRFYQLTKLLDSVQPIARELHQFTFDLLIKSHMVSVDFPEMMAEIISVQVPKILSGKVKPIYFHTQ
Procedure: as §1

SMILES	pIC50 (LNCaP cells; Homo sapiens, LNCaP)	pIC50 (VCaP cells; Homo sapiens, VCaP)	DC50 (AR)	Dmax (AR)	pIC50 (LNCaP cells)	pIC50 (VCaP cells)	Degradation of AR in VCaP cells Dmax (AR)
C[C@H]1CC2(CCN(c3ccc(N4CCN(CC5CCN(c6ccc7c(c6)C(=O)N(C6CCC(=O)NC6=O)C7=O)CC5)CC4)cn3)CC2)CN1c1ccc(C#N)c(Cl)c1 (stereo partly shown) [compound 32]	> 8.00	> 8.00	< 1 nM	> 90%			
C[C@H]1CC2(CCN(c3ccc(N4CCN(C5CN(c6ccc7c(c6)C(=O)N(C6CCC(=O)NC6=O)C7=O)C5)CC4)cn3)CC2)CN1c1ccc(C#N)c(Cl)c1 (stereo partly shown) [compound 33]	> 8.00	> 8.00	< 10 nM	70 to 90%			
C[C@H]1CC2(CCN(c3ccc(N4CCN(CC5CN(c6ccc7c(c6)C(=O)N(C6CCC(=O)NC6=O)C7=O)C5)CC4)nc3)CC2)CN1c1ccc(C#N)c(Cl)c1 (stereo partly shown) [compound 34]	> 8.00	> 8.00	< 1 nM	> 90%			
C[C@H]1CC2(CCN(c3ccc(N4CCN(CC5CCN(c6ccc7c(c6)C(=O)N(C6CCC(=O)NC6=O)C7=O)CC5)CC4)nc3)CC2)CN1c1ccc(C#N)c(Cl)c1 (stereo partly shown) [compound 35]	> 8.00	> 8.00	< 1 nM	> 90%			
C[C@H]1CC2(CCN(c3ccc(N4CCN(C5CN(c6ccc7c(c6)C(=O)N(C6CCC(=O)NC6=O)C7=O)C5)CC4)nc3)CC2)CN1c1ccc(C#N)c(Cl)c1 (stereo partly shown) [compound 36]	> 8.00	> 8.00	< 1 nM	> 90%			
C[C@H]1CC2(CCN(c3ccc(N4CCN(CC5CN(c6ccc7c(c6)C(=O)N(C6CCC(=O)NC6=O)C7=O)C5)CC4)cc3F)CC2)CN1c1ccc(C#N)c(Cl)c1 (stereo partly shown) [compound 37]	> 8.00	> 8.00	< 1 nM	> 90%			
C=C1CCC(N2C(=O)c3ccc(N4CCC(CN5CCN(c6ccc(N7CCC8(CC7)C[C@H](C)N(c7ccc(C#N)c(Cl)c7)C8)c(F)c6)CC5)CC4)cc3C2=O)C(=O)N1 (stereo partly shown) [compound 38]	> 8.00	> 8.00		> 90%			
C[C@H]1CC2(CCN(c3ccc(N4CCN(C5CN(c6ccc7c(c6)C(=O)N(C6CCC(=O)NC6=O)C7=O)C5)CC4)cc3F)CC2)CN1c1ccc(C#N)c(Cl)c1 (stereo partly shown) [compound 39]	> 8.00	> 8.00	< 1 nM	> 90%			
C[C@H]1CC2(CCN(c3ccc(CN4CCN(C5CN(c6ccc7c(c6)C(=O)N(C6CCC(=O)NC6=O)C7=O)C5)CC4)c(F)c3)CC2)CN1c1ccc(C#N)c(Cl)c1 (stereo partly shown) [compound 40]			< 10 nM		> 7.00	> 7.00	A (A = >90%)
C[C@H]1CC2(CCN(c3ccc(CN4CCC(C5CN(c6ccc7c(c6)C(=O)N(C6CCC(=O)NC6=O)C7=O)C5)CC4)c(F)c3)CC2)CN1c1ccc(C#N)c(Cl)c1 (stereo partly shown) [compound 41]			< 10 nM		> 7.00	> 7.00	A (A = >90%)
C[C@H]1CC2(CCN(c3ccc(CN4CCN(C5CCN(c6ccc7c(c6)C(=O)N(C6CCC(=O)NC6=O)C7=O)CC5)CC4)c(F)c3)CC2)CN1c1ccc(C#N)c(Cl)c1 (stereo partly shown) [compound 42]			< 10 nM		> 7.00	> 7.00	A (A = >90%)
C[C@H]1CC2(CCN(c3ccc(C4CCN(CC5CN(c6ccc7c(c6)C(=O)N(C6CCC(=O)NC6=O)C7=O)C5)CC4)cn3)CC2)CN1c1ccc(C#N)c(Cl)c1 (stereo partly shown) [compound 43]	> 8.00	> 8.00	< 1 nM	> 90%			
C[C@H]1CC2(CCN(c3ccc(C4CCN(CC5CCN(c6ccc7c(c6)C(=O)N(C6CCC(=O)NC6=O)C7=O)CC5)CC4)cn3)CC2)CN1c1ccc(C#N)c(Cl)c1 (stereo partly shown) [compound 44]	> 8.00	> 8.00	< 1 nM	> 90%			
C[C@H]1CC2(CCN(c3ccc(C4CCN(CC5CN(c6ccc7c(c6)C(=O)N(C6CCC(=O)NC6=O)C7=O)C5)CC4)nc3)CC2)CN1c1ccc(C#N)c(Cl)c1 (stereo partly shown) [compound 45]	> 8.00	> 8.00	< 1 nM	> 90%			
